# According to article PMC3714282, “Pharmacometabolomics of Response to Sertraline and to Placebo in Major Depressive Disorder – Possible Role for Methoxyindole Pathway” (PLoS ONE, 2013):
# System: serum metabolites (tryptophan, tyrosine, purine pathways, antioxidants)
# Assay: LCECA metabolomic profiling of serum: change from baseline at week 1 and week 4 (all, responders, non-responders)
# Assay type: in vivo, human
# Details: serum; for Change 5-HT / Change 5-HTP / Change 5-MTPOL / Change 7-MXAN / Change ATOCO / Change CYS / Change DIOHMAL / Change DOPAC / Change DTOCO / Change GR / Change GRMP / Change GSH / Change HGA / Change HVA / Change HX / Change KYN / Change LD / Change MEL / Change METH / Change MHPG / Change NA-5-HT / Change TRP / Change TRPOL / Change TYR / Change UA / Change VMA / Change XAN / Change XANTH / Change 3-OHKY / Change 3-OMD / Change 4-HBAC / Change 4-HPAC / Change 4-HPLA / Change 5-HIAA: log-transformed concentration; for Change in ratio 3-OHKY/5-HT, Estimate / Change in ratio 3-OHKY/5-HTP, Estimate / Change in ratio 3-OHKY/5-MTPOL, Estimate / Change in ratio 3-OHKY/MEL, Estimate / Change in ratio 3-OHKY/NA-5-HT, Estimate / Change in ratio 3-OHKY/TRP, Estimate / Change in ratio KYN/5-HT, Estimate / Change in ratio KYN/5-HTP, Estimate / Change in ratio KYN/5-MTPOL, Estimate / Change in ratio KYN/MEL, Estimate / Change in ratio KYN/NA-5-HT, Estimate / Change in ratio KYN/TRP, Estimate: pre- to post-treatment (four weeks)
# Excerpt: Study participants were outpatients, 18–65 years of age, from various clinical sites across the United States. […] A complete description of the inclusion and exclusion used in this study can be found in Table S1. The study protocol was developed in accordance with the principles of the Declaration of Helsinki. All patients provided written informed consent. The study was sponsored and monitored by Pfizer, Inc. Each site's institutional review board approved and oversaw the study. The primary outcome measure was the HAMD17, used to assess depressive symptom severity. Measures were gathered at baseline, and weeks 1 and 4 of treatment at the patient's visits. Serum samples were collected using standard protocol at baseline, week 1 and week 4 of treatment at the clinic visits. Whole blood was collected in serum collection tubes and inverted 5–8 times. Serum samples were allowed to clot at room temperature for 60 minutes and then centrifuged at 1,300×g for 15 minutes. Following centrifugation supernatant was frozen at −80°C until analysis.
# Samples were analyzed using a liquid chromatography electrochemical array (LCECA) platform that has been extensively validated and used in our prior studies in neurodegenerative and psychiatric disorders [30]–[34]. The method includes multiple compounds from the tyrosine, tryptophan, sulfur amino acids and purine pathways, and markers of oxidative stress and protection (for the list of metabolites and abbreviations see Table 1). Levels of 5-Methoxytryptamine (5-MTPM) were measured using a gas chromatography time-of-flight-mass spectrometry (GCTOF-MS) platform. Samples were prepared for analysis as previously described. During the sample preparation, pools were created from equal volumes of subaliquots of all samples. Concentrations of metabolites in the individual samples were expressed as a percentage of the concentration of those metabolites in the averaged pool.
# Data preprocessing: We first removed the metabolites that have more than 40% missing values. […] Principal components analysis (PCA; SIMCA-P+12.0) was used to identify outliers. The analysis was performed for each time point. […] Subjects with ≥3 standard deviations away from the center of data cloud within two principal components (PC's) scores scatter plot were considered outliers and were removed from further analysis.
# These analyses were conducted separately for the sertraline and placebo groups. Between groups t-tests were used to compare baseline to one week and baseline to four week change scores between the sertraline and placebo groups.
# Signatures of response to sertraline and placebo were identified by using paired t-tests to compare week 4 metabolite levels to baseline metabolite levels in the responders and non-responders to therapy. […] These analyses were also performed to evaluate changes in ratios of individual metabolites within (e.g., 5-HT/5-HTP) and between branches of tryptophan pathway (e.g., KYN/MEL).
# [1] = after four weeks, sertraline group
# [2] = after one week, responders to sertraline
# [3] = after one week, sertraline group
compound,measurement,setting,value
"CN[C@H]1CC[C@@H](c2ccc(Cl)c(Cl)c2)c2ccccc21 [Sertraline, sertraline]",Change 5-HT,[1],−1.9
same,Change 5-HTP,[1],0.12
same,Change 5-MTPOL,[1],0.13
same,Change 7-MXAN,[1],0.083
same,Change ATOCO,[1],0.63
same,Change CYS,[1],−0.0014
same,Change DIOHMAL,[1],0.37
same,Change DOPAC,[1],−0.014
same,Change DTOCO,[1],0.71
same,Change GR,[1],0.0002
same,Change GRMP,[1],0.052
same,Change GSH,[1],0.014
same,Change HGA,[1],0.4
same,Change HVA,[1],0.1
same,Change HX,[1],−0.0057
same,Change KYN,[1],0.045
same,Change LD,[1],0.12
same,Change MEL,[1],0.49
same,Change METH,[1],0.2
same,Change MHPG,[1],−0.21
same,Change NA-5-HT,[1],0.041
same,Change TRP,[1],0.07
same,Change TRPOL,[1],0.061
same,Change TYR,[1],0.13
same,Change UA,[1],−0.058
same,Change VMA,[1],−0.015
same,Change XAN,[1],−0.16
same,Change XANTH,[1],0.047
same,Change 3-OHKY,[2],-0.02
same,Change 3-OMD,[2],-0.18
same,Change 4-HBAC,[2],0.49
same,Change 4-HPAC,[2],0.47
same,Change 4-HPLA,[2],0.18
same,Change 5-HIAA,[2],-0.14
same,Change 5-HT,[2],-0.79
same,Change 5-HTP,[2],-0.06
same,Change 5-MTPOL,[2],0.15
same,Change 7-MXAN,[2],-0.51
same,Change ATOCO,[2],0.4
same,Change CYS,[2],0.0024
same,Change DIOHMAL,[2],0.2
same,Change DOPAC,[2],-0.048
same,Change DTOCO,[2],0.75
same,Change GR,[2],0.17
same,Change GRMP,[2],-0.0083
same,Change GSH,[2],-0.02
same,Change HGA,[2],0.19
same,Change HVA,[2],0.13
same,Change HX,[2],-0.075
same,Change KYN,[2],0.052
same,Change LD,[2],0.13
same,Change MEL,[2],0.41
same,Change METH,[2],0.0032
same,Change MHPG,[2],-0.33
same,Change NA-5-HT,[2],-0.022
same,Change TRP,[2],0.044
same,Change TRPOL,[2],0.082
same,Change TYR,[2],-0.027
same,Change UA,[2],-0.048
same,Change VMA,[2],0.1
same,Change XAN,[2],-0.21
same,Change XANTH,[2],0.033
same,Change 3-OHKY,[3],−0.074
same,Change 3-OMD,[3],−0.12
same,Change 4-HBAC,[3],−0.085
same,Change 4-HPAC,[3],0.29
same,Change 4-HPLA,[3],0.1
same,Change 5-HIAA,[3],−0.17
same,Change 5-HT,[3],−0.75
same,Change 5-HTP,[3],−0.11
same,Change 5-MTPOL,[3],0.041
same,Change 7-MXAN,[3],−0.099
same,Change ATOCO,[3],0.21
same,Change CYS,[3],−0.034
same,Change DIOHMAL,[3],0.18
same,Change DOPAC,[3],−0.13
same,Change DTOCO,[3],0.3
same,Change GR,[3],−0.23
same,Change GRMP,[3],−0.011
same,Change GSH,[3],−0.013
same,Change HGA,[3],0.28
same,Change HVA,[3],0.053
same,Change HX,[3],−0.07
same,Change KYN,[3],−0.045
same,Change LD,[3],0.081
same,Change MEL,[3],0.34
same,Change METH,[3],0.097
same,Change MHPG,[3],−0.17
same,Change NA-5-HT,[3],0.0079
same,Change TRP,[3],0.0036
same,Change TRPOL,[3],0.033
same,Change TYR,[3],0.083
same,Change UA,[3],−0.077
same,Change VMA,[3],0.11
same,Change XAN,[3],−0.19
same,Change XANTH,[3],0.082
same,"Change in ratio 3-OHKY/5-HT, Estimate",Nonresponder to sertraline,0.69
same,"Change in ratio 3-OHKY/5-HTP, Estimate",Nonresponder to sertraline,−0.099
same,"Change in ratio 3-OHKY/5-MTPOL, Estimate",Nonresponder to sertraline,−0.035
same,"Change in ratio 3-OHKY/MEL, Estimate",Nonresponder to sertraline,−0.11
same,"Change in ratio 3-OHKY/NA-5-HT, Estimate",Nonresponder to sertraline,0.0038
same,"Change in ratio 3-OHKY/TRP, Estimate",Nonresponder to sertraline,−0.04
same,"Change in ratio KYN/5-HT, Estimate",Nonresponder to sertraline,0.72
same,"Change in ratio KYN/5-HTP, Estimate",Nonresponder to sertraline,−0.076
same,"Change in ratio KYN/5-MTPOL, Estimate",Nonresponder to sertraline,−0.012
same,"Change in ratio KYN/MEL, Estimate",Nonresponder to sertraline,−0.085
same,"Change in ratio KYN/NA-5-HT, Estimate",Nonresponder to sertraline,0.027
same,"Change in ratio KYN/TRP, Estimate",Nonresponder to sertraline,−0.017
same,"Change in ratio 3-OHKY/5-HT, Estimate",Responder to sertraline,0.97
same,"Change in ratio 3-OHKY/5-HTP, Estimate",Responder to sertraline,0.025
same,"Change in ratio 3-OHKY/5-MTPOL, Estimate",Responder to sertraline,−0.043
same,"Change in ratio 3-OHKY/MEL, Estimate",Responder to sertraline,−0.27
same,"Change in ratio 3-OHKY/NA-5-HT, Estimate",Responder to sertraline,−0.00032
same,"Change in ratio 3-OHKY/TRP, Estimate",Responder to sertraline,0.013
same,"Change in ratio KYN/5-HT, Estimate",Responder to sertraline,0.95
same,"Change in ratio KYN/5-HTP, Estimate",Responder to sertraline,0.0057
same,"Change in ratio KYN/5-MTPOL, Estimate",Responder to sertraline,−0.062
same,"Change in ratio KYN/MEL, Estimate",Responder to sertraline,−0.28
same,"Change in ratio KYN/NA-5-HT, Estimate",Responder to sertraline,−0.019
same,"Change in ratio KYN/TRP, Estimate",Responder to sertraline,−0.006
